Columns and labels:
[1] = Clearance rate following an oral dose of 20 mg/kg in rats; type: ADME, organism-based; set-up: dose 20 mg/kg, route oral; settings: rat, in vivo, read-out: Clearance
[2] = Peak plasma concentration (Cmax) following an oral dose of […] mg/kg in rats; type: ADME, organism-based; settings: rat, 20 mg/kg
[3] = target: T1, Prostaglandin G/H synthase 1 (Homo sapiens, UniProt P23219); experiment: Inhibitory concentration was measured […] the sensitive U937 microsome assay; type: microsomes
[4] = target: T2, Prostaglandin G/H synthase 2 (Homo sapiens, UniProt P35354); experiment: Inhibitory concentration was measured against Cyclooxygenase-2 in human whole blood; type: tissue-based
T2 sequence (P35354 whole entry): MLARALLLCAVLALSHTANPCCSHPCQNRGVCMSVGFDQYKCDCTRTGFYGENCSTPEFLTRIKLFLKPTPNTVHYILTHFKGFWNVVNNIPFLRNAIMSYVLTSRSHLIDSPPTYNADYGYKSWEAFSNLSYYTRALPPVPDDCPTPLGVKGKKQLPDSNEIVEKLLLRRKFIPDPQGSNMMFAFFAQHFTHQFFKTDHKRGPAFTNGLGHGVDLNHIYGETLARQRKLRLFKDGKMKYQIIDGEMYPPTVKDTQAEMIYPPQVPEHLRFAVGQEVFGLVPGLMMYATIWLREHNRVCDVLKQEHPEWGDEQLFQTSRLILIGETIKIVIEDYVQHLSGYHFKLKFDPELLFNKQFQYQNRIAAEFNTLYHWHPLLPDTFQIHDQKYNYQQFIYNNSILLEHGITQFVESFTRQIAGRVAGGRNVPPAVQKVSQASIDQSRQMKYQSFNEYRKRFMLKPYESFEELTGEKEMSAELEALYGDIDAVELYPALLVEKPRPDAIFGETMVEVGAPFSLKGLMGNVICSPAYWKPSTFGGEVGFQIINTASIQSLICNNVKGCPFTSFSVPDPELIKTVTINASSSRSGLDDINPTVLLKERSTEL

Rattus norvegicus [5] = experiment: Inhibition of carrageenan induced rat paw oedema.; type: functional
[6] = target: T2, Prostaglandin G/H synthase 2
[7] = target: T1, Prostaglandin G/H synthase 1; type: microsomes
Description: Inhibitory concentration was measured against Prostaglandin G/H synthase 1 in the sensitive U937 microsome assay

[8] = target: T2, Prostaglandin G/H synthase 2; remark: listed apart in the source
Description: Inhibitory concentration was measured against Prostaglandin G/H synthase 2 in human whole blood

[9] = target: T1, Prostaglandin G/H synthase 1; type: tissue-based, Blood
Description: Inhibitory concentration was measured against Prostaglandin G/H synthase 1 in human whole blood

[10] = Oral bioavailability in rat; type: ADME, organism-based; settings: in vivo
[11] = Aqueous solubility was determined; type: physicochemical
Rattus norvegicus [12] = species: Rattus norvegicus; experiment: Effective concentration to reduce pyrexia was determined in rats; type: functional
Rattus norvegicus [13] = species: Rattus norvegicus; experiment: Inhibitory dose to produce analgesia was determined in rats; type: functional; settings: read-out: ID50 (the source's name)
Rattus norvegicus [14] = species: Rattus norvegicus; experiment: Inhibitory dose to reduce arthritis was determined in rats; type: functional; settings: read-out: ID50 (the source's name)

T1 sequence (P23219 whole entry): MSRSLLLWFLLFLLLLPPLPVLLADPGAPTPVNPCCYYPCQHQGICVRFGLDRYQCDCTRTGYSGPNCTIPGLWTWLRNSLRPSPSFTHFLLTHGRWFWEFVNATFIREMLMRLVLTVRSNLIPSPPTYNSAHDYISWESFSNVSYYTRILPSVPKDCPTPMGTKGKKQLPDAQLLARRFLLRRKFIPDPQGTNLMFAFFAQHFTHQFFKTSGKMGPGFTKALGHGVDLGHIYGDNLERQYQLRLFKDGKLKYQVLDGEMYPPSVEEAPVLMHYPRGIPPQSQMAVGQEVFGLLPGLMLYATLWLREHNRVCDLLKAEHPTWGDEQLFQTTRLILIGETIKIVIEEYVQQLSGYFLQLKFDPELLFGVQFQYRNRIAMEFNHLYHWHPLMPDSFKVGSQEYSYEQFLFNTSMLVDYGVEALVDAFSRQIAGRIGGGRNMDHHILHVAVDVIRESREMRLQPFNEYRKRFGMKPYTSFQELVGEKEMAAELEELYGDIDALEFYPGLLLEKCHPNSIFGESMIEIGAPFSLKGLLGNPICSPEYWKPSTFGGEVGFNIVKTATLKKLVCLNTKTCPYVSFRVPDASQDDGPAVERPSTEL

Compound | IC50 [6] [µM] | IC50 [7] [µM] | IC50 [8] [µM] | ED50 (Rattus norvegicus [5]) [mg/kg] | further results
CC1(O)OC(=O)C(c2ccc(F)cc2)=C1c1ccc(S(C)(=O)=O)cc1 (configuration not stated) | 0.38 |  |  | 1.8 | CL/F [1]: 2.6 mL/min; Cmax [2]: 60 µM; IC50 [3]: > 100 µM; IC50 [4]: 1.8 µM
CC1(O)OC(=O)C(c2ccc(Cl)cc2Cl)=C1c1ccc(S(C)(=O)=O)cc1 (configuration not stated) | 1.2 | > 100 | 7.5 |  | 
CC1(O)OC(=O)C(c2ccc3ccccc3c2)=C1c1ccc(S(C)(=O)=O)cc1 (configuration not stated) | 0.45 | 30 | 3.2 | > 10 | 
CC1(O)OC(=O)C(c2ccccc2)=C1c1ccc(S(C)(=O)=O)cc1 (configuration not stated) | 0.16 | > 100 | 1.2 | 1.5 | IC50 [9]: > 90 µM
CC(C)c1ccc(C2=C(c3ccc(S(C)(=O)=O)cc3)C(C)(O)OC2=O)cc1 (configuration not stated) | 0.41 | > 300 | 4.3 |  | IC50 [9]: > 100 µM
CC1(O)OC(=O)C(c2ccsc2)=C1c1ccc(S(C)(=O)=O)cc1 (configuration not stated) | 0.11 | > 100 | 24 |  | 
CC(=O)/C(=C(\C(=O)[O-])c1ccc(Cl)cc1)c1ccc(S(C)(=O)=O)cc1.[Na+] |  |  |  | 1.8 | solubility [11]: > 100 mg/mL; ED50 (Rattus norvegicus [12]): 0.7 mg/kg; ED50 (Rattus norvegicus [13]): 0.8 mg/kg; ED50 (Rattus norvegicus [14]): 0.6 mg/kg
CC1(O)OC(=O)C(c2cccc(F)c2)=C1c1ccc(S(C)(=O)=O)cc1 (configuration not stated) | 0.25 | > 100 | 12.8 | > 10 | 
CC1(O)OC(=O)C(c2cccs2)=C1c1ccc(S(C)(=O)=O)cc1 (configuration not stated) | 1.9 | > 100 | > 33 |  | 
CC1(O)OC(=O)C(c2cc3ccccc3s2)=C1c1ccc(S(C)(=O)=O)cc1 (configuration not stated) |  | > 100 |  |  | 
CC1(O)OC(=O)C(c2ccc(F)c(F)c2)=C1c1ccc(S(C)(=O)=O)cc1 (configuration not stated) | 0.2 | > 300 | 6.3 | > 10 | 
CC(=O)/C(=C(\C(=O)[O-])c1ccccc1)c1ccc(S(C)(=O)=O)cc1.[Na+] |  |  |  |  | solubility [11]: > 100 mg/mL
CC1(O)OC(=O)C(c2cc(F)cc(F)c2)=C1c1ccc(S(C)(=O)=O)cc1 (configuration not stated) | 0.55 | > 100 | 13.4 |  | IC50 [9]: > 90 µM
Cc1ccc(-c2cc(C(F)(F)F)nn2-c2ccc(S(N)(=O)=O)cc2)cc1 [CELECOXIB] |  |  |  | 3.2 | 
CS(=O)(=O)c1ccc(C2=C(c3ccccc3)C(=O)OC2)cc1 [ROFECOXIB] |  |  |  | 1.5 | 

Further lines, with some results ahead:

IC50 [6] [µM] | IC50 [7] [µM] | IC50 [8] [µM] | Compound | ED50 (Rattus norvegicus [5]) [mg/kg] | further results
 | 3 | 0.8 | CC(C)OC1(C)OC(=O)C(c2ccc(F)cc2)=C1c1ccc(S(C)(=O)=O)cc1 (configuration not stated) |  | 
0.07 | 35 | 0.85 | CC1(O)OC(=O)C(c2ccc(Cl)c(Cl)c2)=C1c1ccc(S(C)(=O)=O)cc1 (configuration not stated) | 1.9 | IC50 [9]: 75 µM
> 5 | > 10 | > 10 | CC1(O)OC(=O)C(Sc2ccccc2)=C1c1ccc(S(C)(=O)=O)cc1 (configuration not stated) |  | 
0.069 | 14 |  | COC1(C)OC(=O)C(c2ccc(F)cc2)=C1c1ccc(S(C)(=O)=O)cc1 (configuration not stated) | 2.8 | IC50 [9]: 57 µM; IC50 [4]: 0.1 µM
0.32 | > 10 | 0.4 | CC1(OCC(F)(F)F)OC(=O)C(c2ccc(F)cc2)=C1c1ccc(S(C)(=O)=O)cc1 (configuration not stated) | 6.4 | bioavailability [10]: 35%
> 5 | > 10 | > 33 | CC1(O)OC(=O)C(Oc2ccc(F)c(F)c2)=C1c1ccc(S(C)(=O)=O)cc1 (configuration not stated) |  | 
0.14 | 101 | 1.7 | CC1(O)OC(=O)C(c2ccc(Br)cc2)=C1c1ccc(S(C)(=O)=O)cc1 (configuration not stated) | 1.6 | IC50 [9]: > 100 µM
0.11 | 105 |  | CC1(O)OC(=O)C(c2ccc(Cl)cc2)=C1c1ccc(S(C)(=O)=O)cc1 (configuration not stated) | 1.4 | 
0.31 | 7 | 1.7 | CSc1ccc(C2=C(c3ccc(S(C)(=O)=O)cc3)C(C)(O)OC2=O)cc1 (configuration not stated) |  | IC50 [9]: 38 µM
 | 10 | 0.5 | CCOC1(C)OC(=O)C(c2ccc(F)cc2)=C1c1ccc(S(C)(=O)=O)cc1 (configuration not stated) |  | 
> 5 | > 10 | > 33 | CC1(O)OC(=O)C(c2ccc(O)cc2)=C1c1ccc(S(C)(=O)=O)cc1 (configuration not stated) |  | 
0.11 | 81 | 2.2 | CC1(O)OC(=O)C(c2ccc(F)c(Cl)c2)=C1c1ccc(S(C)(=O)=O)cc1 (configuration not stated) |  | 

Source: ChEMBL document CHEMBL1136665 (Bioorg Med Chem Lett, 2003)
